Test results taken from US9527867B2, “Antibacterial biaromatic derivatives” (Actelion Pharmaceuticals Ltd., priority 2013, dated 2016).
Values after ≈ are worked out from the molar mass of the structure shown.

Assays:
Experiment in all cases: Bacterial growth minimal inhibitory concentration (broth microdilution, CLSI M7-A7)
Assay type in all cases: cell-based
[1] = system: Acinetobacter baumannii T6474; details: multiply-resistant strain (in particular quinolone-resistant); for MIC: Acinetobacter baumannii, T6474, cation-adjusted Mueller-Hinton Broth
Outline: (§1)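 Read-out is the minimal inhibitory concentration in mg/L, obtained by microdilution in cation-adjusted Mueller-Hinton broth following CLSI M7-A7. Quinolone resistance is present in A798 and T6474, which are multiply resistant, but absent in A894 and in methicillin-sensitive ATCC29213.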

[2] = system: Enterococcus faecium A949; details: multiply-resistant strain (in particular quinolone-resistant); for MIC: Enterococcus faecium, A949, cation-adjusted Mueller-Hinton Broth, read-out: MIC for E. faecium A949
Outline: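 Broth microdilution after CLSI M7-A7 in cation-adjusted Mueller-Hinton medium gave MIC values in mg/L.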

[3] = system: Moraxella catarrhalis A894; details: quinolone-sensitive strain; for MIC: Moraxella catarrhalis, A894, cation-adjusted Mueller-Hinton Broth
Outline: as §1

[4] = system: Staphylococcus aureus A798; details: multiply-resistant strain (in particular quinolone-resistant); for MIC: Staphylococcus aureus, A798, cation-adjusted Mueller-Hinton Broth, read-out: MIC for S. aureus A798
Outline: as §1

[5] = system: Staphylococcus aureus ATCC29213; details: methicillin-sensitive and quinolone-sensitive strain; for MIC: Staphylococcus aureus, ATCC29213, cation-adjusted Mueller-Hinton Broth, read-out: MIC for S. aureus ATCC29213
Outline: as §1

[6] = cation-adjusted Mueller-Hinton Broth

SMILES	MIC [1]	MIC [2]	MIC [3]	MIC [4]	MIC [5]	MIC for A. baumannii T6474 [1, 6]	MIC for E. faecium A949 [2, 6]	MIC for M. catarrhalis A894 [3, 6]	MIC for S. aureus A798 [4, 6]	MIC for S. aureus ATCC29213 [5, 6]
COc1ccnc(-c2cc(CNCC[C@H]3CN(c4ccc5c(n4)NC(=O)CO5)C(=O)O3)ccc2O)c1 [Example 101, 6-((S)-5-{2-[4-hydroxy-3-(4-methoxy-pyridin-2-yl)-benzylamino]-ethyl}-2-oxo-oxazolidin-3-yl)-4H-pyrido[3,2-b][1,4]oxazin-3-one]	0.125 µg/mL (≈ 0.254 µM)	2 µg/mL (≈ 4.07 µM)	≤ 0.016 µg/mL	≤ 0.016 µg/mL	≤ 0.016 µg/mL					
COc1cccc(-c2nccc(CNCC[C@H]3CN(c4ccc5c(n4)NC(=O)CO5)C(=O)O3)n2)c1 [Example 102, 6-[(S)-5-(2-{[2-(3-methoxy-phenyl)-pyrimidin-4-ylmethyl]-amino}-ethyl)-2-oxo-oxazolidin-3-yl]-4H-pyrido[3,2-b][1,4]oxazin-3-one]	1 µg/mL (≈ 2.1 µM)	4 µg/mL (≈ 8.39 µM)	0.063 µg/mL (≈ 0.132 µM)	1 µg/mL (≈ 2.1 µM)	0.25 µg/mL (≈ 0.525 µM)					
COc1cccc(-c2cnnc(CNCC[C@H]3CN(c4ccc5c(n4)NC(=O)CO5)C(=O)O3)c2)c1 [Example 103, 6-[(S)-5-(2-{[5-(3-methoxy-phenyl)-pyridazin-3-ylmethyl]-amino}-ethyl)-2-oxo-oxazolidin-3-yl]-4H-pyrido[3,2-b][1,4]oxazin-3-one]	0.5 µg/mL (≈ 1.05 µM)	2 µg/mL (≈ 4.2 µM)	0.063 µg/mL (≈ 0.132 µM)	1 µg/mL (≈ 2.1 µM)	0.25 µg/mL (≈ 0.525 µM)					
COc1cccc(-c2cncc(CNCC[C@H]3CN(c4ccc5c(n4)NC(=O)CO5)C(=O)O3)n2)c1 [Example 104, 6-[(S)-5-(2-{[6-(3-methoxy-phenyl)-pyrazin-2-ylmethyl]-amino}-ethyl)-2-oxo-oxazolidin-3-yl]-4H-pyrido[3,2-b][1,4]oxazin-3-one]	0.5 µg/mL (≈ 1.05 µM)	2 µg/mL (≈ 4.2 µM)	0.031 µg/mL (≈ 0.0651 µM)	0.25 µg/mL (≈ 0.525 µM)	0.25 µg/mL (≈ 0.525 µM)					
COc1cccc(-c2cc(CNCC[C@H]3CN(c4ccc5c(n4)NC(=O)CO5)C(=O)O3)cnn2)c1 [Example 105, 6-[(S)-5-(2-{[6-(3-methoxy-phenyl)-pyridazin-4-ylmethyl]-amino}-ethyl)-2-oxo-oxazolidin-3-yl]-4H-pyrido[3,2-b][1,4]oxazin-3-one]	4 µg/mL (≈ 8.39 µM)	> 8 µg/mL	0.25 µg/mL (≈ 0.525 µM)	8 µg/mL (≈ 16.8 µM)	4 µg/mL (≈ 8.39 µM)					
COc1ccnc(-c2cccc(CNCC[C@H]3CN(c4ccc5c(n4)NC(=O)CO5)C(=O)O3)c2O)c1 [Example 106, 6-((S)-5-{2-[2-hydroxy-3-(4-methoxy-pyridin-2-yl)-benzylamino]-ethyl}-2-oxo-oxazolidin-3-yl)-4H-pyrido[3,2-b][1,4]oxazin-3-one]	1 µg/mL (≈ 2.03 µM)	2 µg/mL (≈ 4.07 µM)	≤ 0.016 µg/mL	0.125 µg/mL (≈ 0.254 µM)	0.125 µg/mL (≈ 0.254 µM)					
COc1cccc(-c2cccc(CNCCc3nn(-c4ccc5c(n4)NC(=O)CO5)c(=O)o3)c2)c1 [Example 107, 6-(5-{2-[(3′-methoxy-biphenyl-3-ylmethyl)-amino]-ethyl}-2-oxo-[1,3,4]oxadiazol-3-yl)-4H-pyrido[3,2-b][1,4]oxazin-3-one]	2 µg/mL (≈ 4.22 µM)	8 µg/mL (≈ 16.9 µM)	0.063 µg/mL (≈ 0.133 µM)	8 µg/mL (≈ 16.9 µM)	4 µg/mL (≈ 8.45 µM)					
COc1cnnc(-c2cccc(CNCCc3nn(-c4ccc5c(n4)NC(=O)CO5)c(=O)o3)c2)c1 [Example 108, 6-(5-{2-[3-(5-methoxy-pyridazin-3-yl)-benzylamino]-ethyl}-2-oxo-[1,3,4]oxadiazol-3-yl)-4H-pyrido[3,2-b][1,4]oxazin-3-one]	1 µg/mL (≈ 2.1 µM)	> 8 µg/mL	0.125 µg/mL (≈ 0.263 µM)	4 µg/mL (≈ 8.41 µM)	2 µg/mL (≈ 4.21 µM)					
COc1cccc(-c2cc(CNCC[C@H]3CN(c4ccc5c(n4)NC(=O)CO5)C(=O)O3)ccc2O)n1 [Example 109]						0.125 µg/mL	2 µg/mL	≦0.016 mg/L	0.031 µg/mL	0.031 µg/mL
COc1cnnc(-c2cncc(CNCC[C@H]3CN(c4ccc5c(n4)NC(=O)CO5)C(=O)O3)c2)c1 [Example 110, (S)-6-(5-(2-(((5-(5-methoxypyridazin-3-yl)pyridin-3-yl)methyl)amino)ethyl)-2-oxooxazolidin-3-yl)-2H-pyrido[3,2-b][1,4]oxazin-3(4H)-one]	2 µg/mL (≈ 4.19 µM)	> 8 µg/mL	0.125 µg/mL (≈ 0.262 µM)	4 µg/mL (≈ 8.38 µM)	4 µg/mL (≈ 8.38 µM)					
COc1cnnc(-c2ccnc(CNCC[C@H]3CN(c4ccc5c(n4)NC(=O)CO5)C(=O)O3)c2)c1 [Example 111, (S)-6-(5-(2-(((4-(5-methoxypyridazin-3-yl)pyridin-2-yl)methyl)amino)ethyl)-2-oxooxazolidin-3-yl)-2H-pyrido[3,2-b][1,4]oxazin-3(4H)-one]	0.25 µg/mL (≈ 0.524 µM)	8 µg/mL (≈ 16.8 µM)	0.031 µg/mL (≈ 0.0649 µM)	0.5 µg/mL (≈ 1.05 µM)	0.25 µg/mL (≈ 0.524 µM)					
